Laboratory results: patent US20250296922A1, “POLYSUBSTITUTED PYRROLIDINE DERIVATIVE, PREPARATION METHOD THEREFOR AND USE THEREOF” (SHANGHAI WENNAI THERAPEUTICS CO LTD, priority 2023, published 2025)
Like-named read-outs stand apart in the source and are kept apart here.

Experiments:
[1] = molecular target: CYP1A2 (Homo sapiens (Human), UniProt P05177); experiment: Human liver microsomal CYP inhibition test, CYP1A2; format: in vitro ADME
Experimental: (§1) 3.1 Buffer solutions: (1) potassium phosphate 100 mM; (2) magnesium chloride, 33 mM;
(§2) 3.2.3 Reservoir for compounds to be tested: Dissolving the compounds to be tested in DMSO to form a 10 mM DMSO solution.
(§3) 3.4.1 Preparation of human liver microsomal working solution (1.27×) (final concentration: 0.2 mg/mL)
(§4) 3.5.3 Adding 20 μL of substrate solution to the appropriate wells and 20 μL of potassium phosphate buffer to the blank wells;
(§5) 3.5.4 Adding 2 μL of different concentrations of target compounds (final concentrations from 0.05 μM to 50 μM, 7 concentrations in total) or standard inhibitors to each well, with 2 μL of methanol solution in the non-inhibitor and blank wells;
(§6) 3.5.5 Adding 1.012 mL of liver microsomes to 78.988 mL of potassium phosphate buffer, then adding 158 μL of liver microsomes solution to all wells; preheating the well plate for 10 minutes in a 37° C. water bath;
(§7) 3.5.6 Weighing 129.1 mg NADPH (purchased from SyncoZymes Co. Ltd.) and adding to 15.0 mL of 33 Mm MgCl2 solution to give a 10 mM concentration, adding 20 μL to each well;
(§8) 3.5.7 Mixing and incubating the well plate in a 37° C. water bath for 10 minutes, then adding 400 μL of cold termination solution at the appropriate time point;
(§9) 3.5.8 Centrifuging the sample at 4000 rpm for 20 minutes to precipitate the protein. Transferring 200 μL of supernatant to 100 μL of HPLC water and shaking for 10 minutes. The samples were analyzed by LC/MS/MS;
(§10) Percentage inhibition was plotted for blank control and different concentrations of target compounds by using XL fitting or SigmaPlot and the data were analyzed by non-linear regression. IC50 values were determined by using either 3-parameter or 4-parameter logistic equations.

[2] = Stability of the compound in liver microsomes (mouse); format: in vitro ADME, CD-1 mouse; conditions: 1 μM compound, 0.5 mg protein/mL; for Mouse liver microsomes T½ / half-life at 1 μM: 37° C.; for half-life at 1 μM: CD-1, mouse, liver microsomes, read-out: Mouse liver microsomes T½
Experimental: (§11) 2.1.1. working solution: 5 μL of test or control compound stock solution (10 mM DMSO solution) was diluted with 495 μL of acetonitrile (ACN) to obtain an intermediate stock solution (100 μM, 99% ACN).
(§12) 2.2.2 Preparation procedure: An appropriate amount of NADPH powder was weighed and diluted with 10 mM MgCl2 buffer (working solution concentration: 10 mM; final reaction system concentration: 1 mM).
(§13) 2.3.2 Preparation procedure: The appropriate concentration of liver microsomal working solution was prepared in 100 mM potassium phosphate buffer;
(§14) Acetonitrile (ACN) solution at 4° C. containing 200 ng/mL of Tolbutamide and 200 ng/ml of labetalol as internal standards 2.5. Operation steps:
(§15) 2.5.2. Diluting liver microsomes with 100 mM potassium phosphate buffer to a concentration of 0.56 mg/mL.
(§16) 2.5.3. Transferring 445 μL of liver microsomal working solution (0.56 mg/mL) to pre-heated incubation plates T60 and NCF60, and then pre-heating the incubation plates T60 and NCF60 for 10 minutes at 37° C. with shaking. Transferring 54 μL of liver microsomes to each well of the blank plate, adding 6 μL of NAPDH coenzyme solution to the blank plate, and finally transferring 180 μL of termination solution to the blank plate.
(§17) 2.5.4 Adding 5 μL of compound working solution (100 μM) to the incubation plates T60 and NCF60 containing liver microsomes and mixing three times.
(§18) 2.5.5. Adding 50 μL of buffer to the NCF60 plate and mixing three times, starting the timer and incubating at 37° C. for 60 min with the plate shaking.
(§19) 2.5.6. Adding 180 μL of quenching solution and 6 μL of NAPDH coenzyme working solution sequentially to quenching plate TO, making sure that the plate was cold to prevent volatilization of the incubation solution.
(§20) 2.5.7. For plate T60, mixing well three times and immediately transferring 54 μL of mixing solution (0-min time point) to quenching plate TO, then adding 44 μL of NAPDH coenzyme working solution to incubation plate T60. Starting the timer:
(§21) 2.5.8. At the 5, 15, 30, 45 and 60 minute time points, adding 180 μL of quenching solution to the quenching plate and transferring 60 μL of reaction solution from the T60 plate to the quenching plate at each time point.
(§22) 2.5.9. For NCF60 plates, mixing well and transferring 60 μL of reaction solution from the NCF60 incubating solution to a quenching plate containing 180 μL of quenching solution at 60th minute.
(§23) 2.5.10. All plates were mixed on a shaker for 10 min and then centrifuged at 4000 rpm at 4° C. for 20 min.
(§24) 2.5.11. Transferring 80 μL of supernatant to 240 μL of HPLC water and mixing on a
(§25) 2.6.1. Calculating t1/2 and Clint (mic) values based on first-order elimination kinetics: […]

[3] = Stability of the compound in liver microsomes (human); format: in vitro ADME; conditions: 1 μM compound, 0.5 mg protein/mL; for Human liver microsomes T½ / half-life at 1 μM: 37° C.; for half-life at 1 μM: human, liver microsomes, read-out: Human liver microsomes T½
Experimental: as §11, §12, §13, §14, §15, §16, §17, §18, §19, §20, §21, §22, §23, §24, §25

[4] = molecular target: CYP2C9 (Homo sapiens (Human), UniProt P11712); experiment: Human liver microsomal CYP inhibition test, CYP2C9; format: in vitro ADME; conditions: human liver microsomes 0.2 mg/mL; substrate Diclofenac
Chain of CYP2C9 (P11712 whole entry): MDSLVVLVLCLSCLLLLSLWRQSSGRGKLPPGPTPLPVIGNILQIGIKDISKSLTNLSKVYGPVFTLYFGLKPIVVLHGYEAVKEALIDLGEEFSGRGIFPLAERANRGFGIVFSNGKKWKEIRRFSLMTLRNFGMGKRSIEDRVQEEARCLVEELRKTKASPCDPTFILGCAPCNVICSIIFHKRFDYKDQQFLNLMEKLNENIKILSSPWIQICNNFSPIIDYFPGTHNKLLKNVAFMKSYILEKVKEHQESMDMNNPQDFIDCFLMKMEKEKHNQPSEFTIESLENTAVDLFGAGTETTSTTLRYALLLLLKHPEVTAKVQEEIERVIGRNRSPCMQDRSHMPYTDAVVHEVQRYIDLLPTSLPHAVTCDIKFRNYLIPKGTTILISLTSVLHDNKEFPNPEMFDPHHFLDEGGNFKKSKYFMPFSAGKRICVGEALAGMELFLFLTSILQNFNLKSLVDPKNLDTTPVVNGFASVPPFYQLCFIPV
Experimental: as §1, §2, §3, §4, §5, §6, §7, §8, §9, §10

[5] = molecular target: CYP2D6 (Homo sapiens (Human), UniProt P10635); experiment: Human liver microsomal CYP inhibition test, CYP2D6; format: in vitro ADME; conditions: human liver microsomes 0.2 mg/mL; substrate Dextromethorphan
Chain of CYP2D6 (P10635 whole entry): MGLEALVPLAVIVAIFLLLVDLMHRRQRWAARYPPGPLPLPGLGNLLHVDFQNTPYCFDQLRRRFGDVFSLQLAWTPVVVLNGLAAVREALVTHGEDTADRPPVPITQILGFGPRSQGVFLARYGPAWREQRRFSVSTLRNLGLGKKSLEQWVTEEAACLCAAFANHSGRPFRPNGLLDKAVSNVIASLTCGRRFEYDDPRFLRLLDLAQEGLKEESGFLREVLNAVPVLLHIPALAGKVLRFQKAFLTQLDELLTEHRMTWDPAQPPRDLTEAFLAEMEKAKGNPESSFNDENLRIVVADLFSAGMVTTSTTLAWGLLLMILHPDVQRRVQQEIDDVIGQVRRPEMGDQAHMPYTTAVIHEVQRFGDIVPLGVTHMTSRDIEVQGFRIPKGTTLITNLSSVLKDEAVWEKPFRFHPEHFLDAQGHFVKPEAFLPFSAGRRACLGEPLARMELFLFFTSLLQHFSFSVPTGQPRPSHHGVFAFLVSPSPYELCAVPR
Experimental: as §1, §2, §3, §4, §5, §6, §7, §8, §9, §10

[6] = human liver microsomes 0.2 mg/mL, substrate Phenacetin, read-out: IC50 (μM) CYP1A2

Chain of CYP1A2 (P05177 whole entry): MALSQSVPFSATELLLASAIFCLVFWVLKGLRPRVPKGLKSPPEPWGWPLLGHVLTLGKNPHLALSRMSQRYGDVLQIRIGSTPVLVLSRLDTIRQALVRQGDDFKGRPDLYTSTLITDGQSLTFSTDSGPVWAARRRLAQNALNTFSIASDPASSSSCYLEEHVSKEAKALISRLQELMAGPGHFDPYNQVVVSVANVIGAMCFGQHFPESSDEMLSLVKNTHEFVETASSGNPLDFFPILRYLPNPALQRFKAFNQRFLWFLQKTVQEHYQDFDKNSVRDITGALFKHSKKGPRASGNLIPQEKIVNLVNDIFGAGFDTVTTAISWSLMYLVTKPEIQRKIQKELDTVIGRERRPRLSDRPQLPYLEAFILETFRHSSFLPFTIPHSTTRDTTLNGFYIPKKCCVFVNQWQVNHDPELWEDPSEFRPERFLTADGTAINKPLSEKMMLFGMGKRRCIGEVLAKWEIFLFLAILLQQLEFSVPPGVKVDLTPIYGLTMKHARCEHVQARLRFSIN

Compound | IC50 ([1]; microsomes) [µM] | Mouse liver microsomes T½ [2] [h] | Mouse liver microsomes Residual (T = 60 min) [2] [%] | Human liver microsomes T½ [3] [h] | Human liver microsomes Residual (T = 60 min) [3] [%] | IC50 [4] [µM] | IC50 [5] [µM] | IC50 [1, 6] [µM] | half-life at 1 μM [2] [h] | half-life at 1 μM [3] [h]
4-((2R,3S,4S,5R)-3-(3,4-difluoro-2-(methoxy-d3)phenyl)-4,5-dimethyl-5-(trifluoromethyl) pyrrolidine-2-carboxamido)pyridinamide [Compound 11] | > 50 | 1.24 | 52.9 | 1.59 | 60.1 | 41.4 | > 50 |  |  | 
COc1c([C@H]2[C@H](C(=O)Nc3ccc[n+]([O-])c3)N[C@@](C)(C(F)(F)F)[C@H]2C)ccc(F)c1F [Compound 7, 3-((2R,3S,4S,5R)-3-(3,4-difluoro-2-methoxyphenyl)-4,5-dimethyl-5-(trifluoromethyl)pyrrolidine-2-carboxamido)pyridine 1-oxide] |  |  | 75.4 |  | 74.8 | > 50 | > 50 | > 50 | > 2.42 | > 2.42
COc1c([C@H]2[C@H](C(=O)Nc3cccc(S(N)(=O)=O)c3)N[C@@](C)(C(F)(F)F)[C@H]2C)ccc(F)c1F [Compound 8, (2R,3S,4S,5R)-3-(3,4-difluoro-2-methoxyphenyl)-4,5-dimethyl-aza-(3-aminosulfonylphenyl)-5-(trifluoromethyl) pyrrolidine-2-carboxamide] | > 50 | 1.51 | 62.9 | >2.42 | 80.3 | 22.9 | 41.6 |  |  | 
COc1c([C@H]2[C@H](C(=O)Nc3ccnc(C(N)=O)c3)O[C@@](C)(C(F)(F)F)[C@H]2C)ccc(F)c1F [VX-548, reference compound] |  |  | 56.3 |  | 70.9 | 17.4 | > 50 | > 50 | 1.2 | 2.2
